Assay results from patent US20080275248A1, “NOVEL 4BETA-AMINO PODOP[…] AS POTENTIAL ANTICANCER AGENTS AND A PROCESS FOR THE PREPARATION THEREOF” (priority 2007, published 2008).
Converted amounts (≈) assume the structure as drawn. Like-named read-outs stand apart in the source and are kept apart here.

What was measured:
Assay type in all cases: cell-based, human
MCF7 = assay: SRB cytotoxicity assay, breast MCF7; settings: for IC50: Homo sapiens, read-out: Activity status in terms of IC50 values, Breast MCF7
Description: (§1) Single cell suspension of the tumor cells grown in tissue culture were made, cells counted and cell count adjusted to 1×10 ^5 to 5×10^5 cells/ml. Ninety six (96) well plates were seeded with this cell suspension, each well receiving 100 μl of it. The plate was then be incubated at 37° C. temperature in CO2 incubator for 24 hours. Drugs were added at appropriate concentrations after 24-hour incubation followed by further incubation for 48 hours. Experiment was terminated by gently layering the cells in the wells with 30% TCA and plates were kept in refrigerator for 1 hour following which they were washed thoroughly with tap water, dried attained with 0.4% SRB in 1% acetic aid and finally, the bound SRB eluted with 10 mM tris. Absorbance was read at 540 nm, in the microtitre-plate reader. Optical density of drug-treated cells was compared with that of control cells and cell inhibition was calculated as percent values. Each compound was tested at 10, 20, 40 and 80 μg/ml in triplicate on human malignant cell lines.

Colo205 = assay: SRB cytotoxicity assay, colon Colo205; settings: for IC50: Homo sapiens, read-out: Activity status in terms of IC50 values, Colon Colo205
Description: as §1

DWD = assay: SRB cytotoxicity assay, oral DWD; settings: for IC50: Homo sapiens, read-out: Activity status in terms of IC50 values, Oral DWD
Description: as §1

PC3 = assay: SRB cytotoxicity assay, prostate PC3; settings: for IC50: Homo sapiens, read-out: Activity status in terms of IC50 values, Prostate PC3
Description: as §1

SiHa = assay: SRB cytotoxicity assay, cervix SiHa; settings: for IC50: Homo sapiens, read-out: Activity status in terms of IC50 values, Cervix SiHa
Description: as §1

Hop62 = assay: SRB cytotoxicity assay, lung Hop62; settings: for IC50: Homo sapiens, read-out: Activity status in terms of IC50 values, Lung Hop62
Description: as §1

HT1080 = assay: SRB cytotoxicity assay, oral HT1080; settings: for IC50: Homo sapiens, read-out: Activity status in terms of IC50 values, Oral HT1080
Description: as §1

DU145 = assay: SRB cytotoxicity assay, prostate DU145; settings: for IC50: Homo sapiens, read-out: Activity status in terms of IC50 values, Prostate DU145
Description: as §1

Zr-75-1 = assay: SRB cytotoxicity assay, breast Zr-75-1; settings: for IC50: Homo sapiens, read-out: Activity status in terms of IC50 values, Breast Zr-75-1
Description: as §1

[1] = MCF7 breast cancer cells, SRB assay, 48 hours drug incubation
[2] = DWD oral cancer cells, SRB assay, 48 hours drug incubation
[3] = SiHa cervix cancer cells, SRB assay, 48 hours drug incubation
[4] = Zr-75-1 breast cancer cells, SRB assay, 48 hours drug incubation
[5] = Colo205 colon cancer cells, SRB assay, 48 hours drug incubation
[6] = PC3 prostate cancer cells, SRB assay, 48 hours drug incubation
[7] = Hop62 lung cancer cells, SRB assay, 48 hours drug incubation
[8] = HT1080 oral cancer cells, SRB assay, 48 hours drug incubation
[9] = DU145 prostate cancer cells, SRB assay, 48 hours drug incubation

Row | Compound | Activity status in terms of IC50 values, Breast MCF7 (MCF7; [1]) [µg/mL] | Activity status in terms of IC50 values, Colon Colo205 (Colo205; [5]) [µg/mL] | Activity status in terms of IC50 values, Oral DWD (DWD; [2]) [µg/mL] | Activity status in terms of IC50 values, Prostate PC3 (PC3; [6]) [µg/mL] | Activity status in terms of IC50 values, Cervix SiHa (SiHa; [3]) [µg/mL] | Activity status in terms of IC50 values, Lung Hop62 (Hop62; [7]) [µg/mL] | Activity status in terms of IC50 values, Oral HT1080 (HT1080; [8]) [µg/mL] | Activity status in terms of IC50 values, Prostate DU145 (DU145; [9]) [µg/mL] | Activity status in terms of IC50 values, Breast Zr-75-1 (Zr-75-1; [4]) [µg/mL] | also measured
1 | COc1cccc2c1C(=O)c1c(O)c3c(c(O)c1C2=O)C[C@@](O)(C(=O)CO)C[C@@H]3O[C@H]1C[C@H](N)[C@H](O)[C@H](C)O1 [ADR, Adriamycin, reference compound] |  |  |  |  |  |  |  |  |  | IC50 (MCF7; [1]): 5 µg/mL (≈ 9.2 µM); IC50 (Colo205; COLO 205, Colo205 colon cancer cells, SRB assay, 48 hours drug incubation): 5 µg/mL (≈ 9.2 µM); IC50 (DWD; [2]): 2 µg/mL (≈ 3.68 µM); IC50 (PC3; PC-3, PC3 prostate cancer cells, SRB assay, 48 hours drug incubation): 5 µg/mL (≈ 9.2 µM); IC50 (SiHa; [3]): 5 µg/mL (≈ 9.2 µM); IC50 (Hop62; HOP-62, Hop62 lung cancer cells, SRB assay, 48 hours drug incubation): 5 µg/mL (≈ 9.2 µM); IC50 (HT1080; HT-1080, HT1080 oral cancer cells, SRB assay, 48 hours drug incubation): 4 µg/mL (≈ 7.36 µM); IC50 (DU145; DU-145, DU145 prostate cancer cells, SRB assay, 48 hours drug incubation): 6 µg/mL (≈ 11 µM); IC50 (Zr-75-1; [4]): 5 µg/mL (≈ 9.2 µM)
2 | COc1cc([C@@H]2c3cc4c(cc3[C@H](O)[C@H]3COC(=O)[C@H]23)OCO4)cc(OC)c1OC [Compound 1, Podophyllotoxin, reference compound] |  |  |  |  |  |  |  |  |  | IC50 (MCF7; MCF7, 48 h): 3 µg/mL (≈ 7.24 µM); IC50 (Colo205; COLO 205, 48 h): 5 µg/mL (≈ 12.1 µM); IC50 (DWD; DWD, 48 h): 6 µg/mL (≈ 14.5 µM); IC50 (PC3; PC-3, 48 h): 8 µg/mL (≈ 19.3 µM); IC50 (SiHa; SiHa, 48 h): 23 µg/mL (≈ 55.5 µM); IC50 (Hop62; HOP-62, 48 h): 13 µg/mL (≈ 31.4 µM); IC50 (HT1080; HT-1080, 48 h): 8 µg/mL (≈ 19.3 µM); IC50 (DU145; DU-145, 48 h): 2 µg/mL (≈ 4.83 µM); IC50 (Zr-75-1; ZR-75-1, 48 h): 7 µg/mL (≈ 16.9 µM)
3 | COc1cc(C2c3cc4c(cc3C(Nc3ccc(-c5nc6ccccc6s5)cc3)C3COC(=O)C23)OCO4)cc(OC)c1OC (stereo not drawn) [Compound 4a, 4β-[4″-(1″,3″-benzothiazole-2″-yl)anilino]-4-desoxypodophyllotoxin] | >80 | 8 | 22 | >80 | >80 | >80 | 8 | >80 | >80 | 
4 | COc1cc(C2c3cc4c(cc3C(Nc3ccc(-c5nc6ccccc6s5)cc3)C3COC(=O)C23)OCO4)cc(OC)c1O (stereo not drawn) [Compound 4b, 4′-O-Demethyl-4β-[4″-(1″,3″-benzothiazole-2″-yl)anilino]-4-desoxypodophyllotoxin] | >80 | 8 | 6 | >80 | >80 | 8 | >80 | 13 | >80 | 
5 | COc1cc(C2c3cc4c(cc3C(Nc3ccc(-c5nc6ccccc6s5)c(Cl)c3)C3COC(=O)C23)OCO4)cc(OC)c1OC (stereo not drawn) [Compound 4c, 4β-[4″-(1″,3″-Benzothiazole-2″-yl)-3″-chloroanilino]-4-desoxypodophyllotoxin] | >80 | 7 | 5 | >80 | >80 | 15 | 9 | >80 | >80 | 
6 | COc1cc(C2c3cc4c(cc3C(Nc3ccc(-c5nc6ccccc6s5)c(Cl)c3)C3COC(=O)C23)OCO4)cc(OC)c1O (stereo not drawn) [Compound 4d, 4′-O-Demethyl-4β-[4″-(1″,3″-benzothiazole-2″-yl)-3″-chloroanilino]-4-desoxypodophyllotoxin] | >80 | 7 | 7 | >80 | >80 | 60 | 9 | >80 | >80 | 
7 | COc1cc(C2c3cc4c(cc3C(Nc3ccc(-c5nc6ccc(F)cc6s5)cc3)C3COC(=O)C23)OCO4)cc(OC)c1OC (stereo not drawn) [Compound 4g, 4β-[4″-(6″-Fluoro-1″,3″-benzothiazole-2″-yl)anilino]-4-desoxypodophyllotoxin] | >80 | 7 | 5 | >80 | >80 | 30 | 9 | >80 | >80 | 
8 | COc1cc(C2c3cc4c(cc3C(Nc3ccc(-c5nc6ccc(F)cc6s5)cc3)C3COC(=O)C23)OCO4)cc(OC)c1O (stereo not drawn) [Compound 4h, 4′-O-Demethyl-4β-[4″-(6″-fluoro-1″,3″-benzothiazole-2″-yl)anilino]-4-desoxypodophyllotoxin] | >80 | 8 | 9 | >80 | >80 | 10 | >80 | >80 | >80 | 
